Results on nine molecules are retold here after patent US4118506A, “Pharmaceutical compositions containing 1,3-dithiol-2-ylidene malonate derivatives” (Nihon Nohyaku Co., Ltd., priority 1976, dated 1978).

A value given as a limit tells only on which side of the number the result lay.

Assay [1] has as its system acute liver damage induced by carbon tetrachloride. Briefly: protective effect on acute liver damage associated with centrilobular necrosis, carbon tetrachloride model. The format is in vivo, mouse (dd strain). Particulars: 250 mg/kg oral 6 h before CCl4, 24 h after CCl4; for Liver Damage Index: 0 normal, 2 slightly recognized, 4 clearly observable, 6 heavy damage, average of 5 to 6 mice; for p-GPT: values over 1,000 taken as 1,000. From the text: Carbon tetrachloride (CCl4) administration induces centrilobular necrosis of the liver associated with loss of diphosphopyridine nucleotide, hepatic glycogen, coenzyme A and increase in neutral fat. Release of several enzymes from the hepatocytes, and increase of enzyme activities in the plasma are recognized as the result of the damage of the liver. A suitable means for evaluating the degree of damage induced by CCl4 or the degree of protection afforded by drugs is to study the plasma glutamic-pyruvic transaminase (p-GPT) activity.
Methods: The test compounds were dissolved or suspended in olive oil and administered orally at the dose of 250 mg/kg to the mice (Four-week-old male mice-dd strain). After 6 hours, CCl4 was administered orally (0.05 ml/kg as olive oil solution). Animals were killed 24 hours after CCl4 administration, and the liver was grossly observed. The plasma was obtained by centrifugation. Activities of p-GPT were determined by the method of Reitman and Frankel and expressed in Karmen units.
Score for liver damage index was as follows:
Each figure indicates average of 5 to 6 mice. Values of p-GPT over 1,000 Karmen unit regarded as 1,000 for calculation of average for convenience.

For assay [2], the system named is alcohol metabolic function of liver. Briefly: effect on concentration of ethyl alcohol in the blood. The format is in vivo, mouse. Particulars: 250 mg/kg oral 6 h before ethanol 1,000 mg/kg. On the procedure:
The test compounds are dissolved or suspended in olive oil and administered orally at the dose of 250 mg/kg to the mice. After 6 hours, 1,000 mg/kg of ethyl alcohol was given orally. Blood was taken in a capillary from caudal vein at the time indicated in the results. The plasma was obtained by centrifugation. The concentration of ethyl alcohol in the plasma was measured by FID type gas liquid chromatography. Five mice were used for each group.

Assay [3] has as its system fatty liver induced by ethionine. Briefly: effect on fatty liver, ethionine model. To be noted: 250 mg/kg oral, simultaneously with (0 hr) ethionine 200 mg/kg i.p. The format is in vivo, mouse (dd-strain). The source says:
There are known many factors inducing fatty liver. But, the fatty liver is grouped into a couple of patterns from the mechanism of lipid accumulation or metabolism of lipoprotein in the liver. Ethionine is a typical example which induces first pattern of fatty liver. It inhibits RNA and protein synthesis and destroys polysome of the liver cell. Fatty liver is induced by inhibition of the protein synthesis and disturbance of lipoprotein secretion.
Usually, fatty liver is closely related to the accumulation of triglyceride in the liver. In the present example, the degree of fatty liver and protective or therapeutic effect on the fatty liver was evaluated by measurement of triglyceride content in the liver.
The compounds of this invention and methionine were independently dissolved or suspended into olive oil and administered orally to the male mouse (4 week-old dd-strain) at the dose of 250 mg/kg. One hour before it, simultaneously with it or one hour after it, ethionine dissolved in equimolar NaOH solution was administered intraperitoneally at the dose of 200 mg/kg. Twenty four hours after the administration of ethionine, the animals were sacrificed and triglyceride content in the liver was determined by chromotropic acid method.

Assay [4] concerns fatty liver induced by carbon tetrachloride. Briefly: therapeutic effect on fatty liver, carbon tetrachloride model. The format is in vivo, rat (SD strain). On the procedure: Carbon tetrachloride also induces fatty liver, but the picture of disease differs from the case of ethionine-induced fatty liver. Carbon tetrachloride is generally considered to damage microsome and thereby to inhibit protein synthesis and induce fatty liver.
Carbon tetrachloride was subcutaneously administered to 36 week-old male rats (SD strain) for 4 days at the dose of 1 ml/kg. The treated animals were left for 3 days after the last administration to maximize the manifestation of fatty liver.
Administration of Compound 4 was commenced on the fourth day after the administration of carbon tetrachloride was completed. It was orally given everyday for 10 days at the dose of 50 or 250 mg/kg. On the 11th day, the animals were sacrificed by exsanguination. The therapeutic effect was evaluated by determining the content of lipid in the liver (triglyceride and total lipid) and examining the histopathological changes. Triglyceride and total lipid were determined colorimetrically by chromotropic acid method and Bragdon's oxidation method, respectively.
Indices for the histopathological change is as follows: […]

Assay [5] has as its system acute liver damage induced by allyl alcohol. Briefly: protective effect on acute liver damage associated with periportal necrosis, allyl alcohol model. In kind it is in vivo, mouse (dd strain). To be noted: 250 mg/kg oral 6 h before allyl alcohol 0.075 ml/kg oral; 24 h after. On the procedure: The compound of this invention or anethol trithion was orally administered to the male mouse (4 week/old, dd strain) at the dose of 250 mg/kg. Six hours after it, allyl alcohol was orally administered at the dose of 0.075 ml/kg. Twenty four hours after it, the animals were sacrificed to collect blood samples.

Assay [6] relates to acute liver damage induced by D-galactosamine. Briefly: protective effect on acute hepatitis with mesenchymal reaction and discrete lobular necrosis, D-galactosamine model. In kind it is in vivo, rat (SD strain). To be noted: 250 mg/kg oral 6 h before D-galactosamine i.p. On the procedure: D-Galactosamine is a compound which induces a discrete lobular necrosis associated with mesenchymal reaction similar to the change observed in human viral hepatitis, so that it is frequently used in producing a model for viral hepatitis.
The compound of this invention or anethol trithion was administered orally to the male rat (SD strain) at the dose of 250 mg/kg. Six hours after it, D-galactosamine was intraperitoneally administered at the dose of 600 mg/kg. Four hours after it, an additional 300 mg/kg was administered intraperitoneally. Eight hours after it, the animals were sacrificed to collect the blood samples. P-GPT activity and triglyceride in the liver were measured to evaluate the effect of the compound of this invention.

Assay [7] has as its system acute liver damage induced by chloroform. Briefly: protective effect on acute liver damage associated with centrilobular necrosis, chloroform model. Particulars: chloroform 0.2 ml/kg oral; 100 mg/kg oral 6 h before; 24 h after. In kind it is in vivo, mouse (dd). On the procedure: (§1) Bromobenzene (hereinafter abbreviated as BB), Dimethylnitrosamine (hereinafter abbreviated as DMN) and chloroform (hereinafter abbreviated as CF) resemble carbon tetrachloride in inducing liver damage associated with centrilobular necrosis.
(§2) Test compound or anethol trithion was orally administered to animal at the dose of 100 mg/kg. Twenty four hours after it (in the case of dimethylnitrosamine, exceptionally fifteen hours after it) the animals were sacrificed and blood samples were collected. Indices of hepatotoxicity adoptable in each chemical were measured, from which the efficacy of the compound was evaluated.
CF male mouse 0.2 oral p-GPT activity

The subject of assay [8] is bile flow and excretion of biliary salt. Briefly: cholagogic action: bile flow and biliary salt excretion. The format is in vivo, rat (SD-JCL strain). Also noted: key to excretion of biliary salt: relative to 1 h pre-drug amount taken as 100. On the procedure: The male rat (4 week-old, SD-JCL strain) was anesthetized with sodium pentobarbital (37.5 mg/kg, intraperitoneal injection). The abdominal cavity was opened through a midline incision. The common bile duct was catheterized with polyethylene tube o.d. 0.8 mm. The catheter was brought to the outside through the abdominal incision wound prior to closing. Bile was collected from the catheter continuously with time intervals of one hour. The quantity of bile produced in one hour was determined by weighing and that of biliary salt was determined by enzymatic method (Ikagaku Jikkenho Koza 1B, Biological Constituents II, edited by Tamino […]). The amount of biliary salts was represented as chloic acid equivalent. In the representation of the results, the quantities of bile and biliary salts produced in one hour prior to the administration of drug were taken as 100. […] As reference, anethol trithion was used.

The test system of assay [9] is acute liver damage induced by bromobenzene. Briefly: protective effect on acute liver damage associated with centrilobular necrosis, bromobenzene model. The format is in vivo, rat (SD). To be noted: bromobenzene 0.75 ml/kg oral; 100 mg/kg oral 6 h before; 24 h after. On the procedure: as §1, §2
BB male rat 0.75 oral p-GPT activity

In assay [10] the test system is acute liver damage induced by dimethylnitrosamine. Briefly: protective effect on acute liver damage associated with centrilobular necrosis, dimethylnitrosamine model. The format is in vivo, mouse (dd). Particulars: dimethylnitrosamine 0.05 ml/kg i.p.; 100 mg/kg oral 6 h before; 15 h after. On the procedure:
as §1, §2
DMN male mouse 0.05 intraper-

The test system of assay [11] is glucose metabolic function of liver. Briefly: effect on glucose metabolism (blood sugar). The format is in vivo, mouse. Particulars: for Blood Sugar: 250 mg/kg oral 6 h before glucose 4.0 g/kg. On the procedure: Methods: The test compounds dissolved in olive oil and administered orally at the dose of 250 mg/kg to the mice. After 6 hours, 4.0 g/kg of glucose was orally administered. The same amount of glucose was given to the control animals. 0.02 ml of blood was taken from caudal vein of the mice at 30, 60, 90 and 120 min. after glucose administration. Blood sugar was measured by the procedure of Somogyi-Nelson. Number of animals used was 5 to 6 mice for each treatment.

In the case of `CCOC(=O)C(C(=O)OC(C)C)=C1SC=CS1` [Compound 7, Ethyl isopropyl 1,3-dithiol-2-ylidene malonate], the “Liver Damage Index” value in assay [1] was determined as 0.8. The molecule also displayed a p-GPT in assay [1] of 102 Karmen units. Further, the “Concentration of Ethyl alcohol in Plasma” value is listed as 30 ± 14 ppm in [2] (0 min); 830 ± 180 ppm in assay [2] (5 min); 799 ± 154 ppm in [2] (15 min); 448 ± 208 ppm in [2] (30 min); 158 ± 113 ppm in assay [2] (60 min); 12 ± 2 ppm in assay [2] (120 min).
On to `CSCC[C@H](N)C(=O)O` [Methionine, reference compound], for which the Triglyceride in [3] is 10.3 ± 0.83 mg/g-liver; in assay [4] (250 mg/kg, 10 days), 47.3 ± 7.3 mg/g-liver. Moreover, in [4] (250 mg/kg, 10 days), the Total lipid was 146.1 ± 13.0 mg/g-liver. The “therapeutic effect against fatty liver” value in assay [4] (carbon tetrachloride) was “hardly exhibited a therapeutic effect”.
Regarding `COc1ccc(-c2cc(=S)ss2)cc1` [Anethol trithion, reference compound], the BSP worked out at 19.3 ± 4.6 in assay [5], 12.9 ± 5.5 mg/dL in assay [9] and 17.6 ± 2.7 mg/dL in [10]. Further, the p-GPT in [1] was 38 Karmen units; in assay [7] it was greater than 1000 Karmen unit; in assay [9], 28 ± 4.1 Karmen unit; in [10], 192 ± 54 Karmen unit. Further, the “Triglyceride in the liver” value in [6] was 9.2 ± 1.5 mg/g. Moreover, the “excretion of biliary salt” value in [8] (200 mg/kg oral, 5 hours after treatment, before treatment = 100) was 33 ± 4.0; in assay [8] (before treatment, 1 hour, taken as 100 (normalisation)), 100.
In the case of `CCCOC(=O)C(C(=O)OCCC)=C1SC=CS1` [Compound 3, Di-n-propyl 1,3-dithiol-2-ylidene malonate], in [1], the “Liver Damage Index” value was determined as 0.1 and the p-GPT is reported as 36 Karmen units.
For `CCCCOC(=O)C(C(=O)OCCCC)=C1SC=CS1` [Compound 5] the same measures were 0.4 and 52 Karmen units.
With `COC(=O)C(C(=O)OCC(C)C)=C1SC=CS1` [Compound 8, Methyl isobutyl 1,3-dithiol-2-ylidene malonate], in assay [1], the “Liver Damage Index” value is on record as 0.6 and the p-GPT was 88 Karmen units.
In the same order, the values of `COC(=O)C(C(=O)OC)=C1SC=CS1` [Compound 1] are 0.4 and 138 Karmen units.
Consider `CCOC(=O)C(C(=O)OCC)=C1SC=CS1` [Compound 2, Diethyl 1,3-dithiol-2-ylidene malonate], for which the “Blood Sugar, percent of 0 min value” in assay [11] (0 min) is listed as 100%; in assay [11] (30 min), 217%; in assay [11] (60 min) it was 185%; in [11] (90 min) it was 149%; in assay [11] (120 min), 116%. Further, the “Blood Sugar” value in assay [11] (0 min) was 136 ± 20.4 mg/dL; in [11] (30 min), 295 ± 22.3 mg/dL; in [11] (60 min), 251 ± 19.6 mg/dL; in assay [11] (90 min), 202 ± 12.3 mg/dL; in assay [11] (120 min), 158 ± 15.5 mg/dL. Moreover, in [1], the “Liver Damage Index” value came out at 0.2. In addition, the p-GPT in [1] turned out to be 36 Karmen units.
For `CC(C)COC(=O)C(C(=O)OCC(C)C)=C1SC=CS1` [Compound 6], in assay [1], the “Liver Damage Index” value is reported as 0.4 and the p-GPT is 75 Karmen units.
